Data on five compounds can be found in EP1205473A1, “VESAMICOL PIPERAZINE DERIVATIVES AND DRUGS CONTAINING THE SAME” (DAIICHI RADIOISOTOPE LABORATORIES, LTD., priority 1999, dated 2001).

Assay [1] has as its target T1, vesamicol receptors (Rattus norvegicus, UniProt Q62666).
T1 sequence (Q62666 1-530): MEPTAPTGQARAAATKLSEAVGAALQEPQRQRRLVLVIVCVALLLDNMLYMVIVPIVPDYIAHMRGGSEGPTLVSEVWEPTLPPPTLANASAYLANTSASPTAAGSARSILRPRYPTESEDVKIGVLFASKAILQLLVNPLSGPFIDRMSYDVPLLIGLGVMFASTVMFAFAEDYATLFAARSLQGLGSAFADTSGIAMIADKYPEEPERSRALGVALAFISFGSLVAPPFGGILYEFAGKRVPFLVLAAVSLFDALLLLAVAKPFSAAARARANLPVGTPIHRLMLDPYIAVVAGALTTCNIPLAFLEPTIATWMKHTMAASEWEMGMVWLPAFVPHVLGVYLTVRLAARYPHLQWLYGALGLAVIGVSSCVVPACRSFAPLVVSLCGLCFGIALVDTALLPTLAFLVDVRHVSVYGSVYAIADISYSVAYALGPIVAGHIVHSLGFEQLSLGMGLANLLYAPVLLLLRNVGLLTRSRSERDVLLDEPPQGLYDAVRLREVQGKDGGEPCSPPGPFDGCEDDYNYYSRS
As to the kind of experiment: Inhibition experiment: inhibition of binding of radioactive-iodine-labeled DRC140 to P2 fractions. Further details: Synaptic vesicles were extracted and separated from the brain of a rat; from tissue; host or cells: rat brain without cerebellum: P2, crude synaptic vesicles, purified synaptic vesicles.

Assay [2] addresses T2, serotonin 5-HT1A receptors (Rattus norvegicus, UniProt P19327).
T2 construct: The hippocampi were immediately collected from the brains; from tissue; host or cells: rat hippocampus membranes
T2 sequence (P19327 1-422): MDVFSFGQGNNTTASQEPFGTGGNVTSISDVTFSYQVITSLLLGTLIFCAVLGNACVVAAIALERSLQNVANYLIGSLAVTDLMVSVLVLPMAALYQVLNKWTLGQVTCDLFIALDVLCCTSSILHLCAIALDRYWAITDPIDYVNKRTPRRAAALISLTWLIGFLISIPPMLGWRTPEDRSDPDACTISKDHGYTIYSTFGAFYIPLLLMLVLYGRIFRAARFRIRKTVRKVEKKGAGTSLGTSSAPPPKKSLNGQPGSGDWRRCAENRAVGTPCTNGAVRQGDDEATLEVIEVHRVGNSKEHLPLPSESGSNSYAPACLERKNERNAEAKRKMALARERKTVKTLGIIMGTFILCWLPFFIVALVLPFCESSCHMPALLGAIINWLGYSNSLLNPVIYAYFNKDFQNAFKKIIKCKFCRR
As to the kind of experiment: Receptor binding test: inhibition of tritium-labeled 8-hydroxy-DPAT binding to brain (hippocampus) homogenate. Further details: species or system Male Wistar rats. Here is the method:
(§1) Properties relating to binding of the vesamicol piperazine derivatives of the present invention to various receptors were examined as follows. Specifically, ligands which combine with each receptor were incubated together with homogenates prepared as follows.
To measure affinity to serotonin 5-HT1A receptors, tritium-labeled 8-hydroxy-DPAT was added to a brain homogenate prepared as follows. The vesamicol piperazine derivatives synthesized in the Examples were added at various concentrations, and the mixture was incubated for 30 minutes at 37°C. To measure affinity to serotonin 5-HT2A receptors, tritium-labeled ketanserin was added to a brain homogenate prepared as follows. The vesamicol piperazine derivatives synthesized in the Examples were added at various concentrations, and the mixture was incubated for 15 minutes at 37°C.
(§2) B (%) =((1 0 0 × [U])^(∩))/([ I C50 (])^(∩) (+ [U])^(∩)) [formula] wherein B(%) is the proportion of specific binding in the total binding, n indicates a Hill coefficient, and U is the concentration of unbound ligand.
Male Wistar rats were anesthetized with ether and were decapitated and the brains quickly extracted. The hippocampi were immediately collected from the brains. A 40-fold (vol/wt) amount of ice cooled 50 mM Tris-HCl buffer (pH 7.4) was added to the hippocampi. The mixture was homogenized using a potter-type homogenizer. The homogenate was centrifuged at 40,000 x g for 20 minutes. The supernatant liquid was removed and the resulting pellets were suspended in a 40-fold amount of Tris-HCl buffer solution. The suspension was centrifuged and the Tris buffer solution was again added to the pellets. This procedure was repeated twice. The product thus obtained was homogenized using a 40-fold amount of Tris-HCl buffer solution and incubated for 10 minutes at 37°C to remove endogenic 5-HT. The cell membrane was collected by centrifugation, washed twice, and suspended in a 10-fold amount of 50 mM Tris-HCl buffer solution (pH 7.4). The suspension thus obtained was stored at -80°C until the start of the binding experiment.

Assay [3] addresses T1, vesamicol receptors. The assay can be described thus: Receptor binding test: inhibition of I-125 labeled 5-iodobenzo vesamicol binding to brain homogenate. Further details: from tissue; host or cells: rat brain without cerebellum, P2 fraction; species or system Male Wistar rats. Particulars: Inhibitive concentration at 50% (IC50), Vesamicol receptor, Table 5; incubated three hours at 37°C; no unit printed in table (b19 gives nM for DRC140). Here is the method:
as §1
To measure affinity of vesamicol receptors, I-125 labeled 5-iodobenzo vesamicol (synthesized and labeled according to Jung et al., J. Med. Chem. 33, 2065-2068, 1990) was added to a brain homogenate prepared as follows. The vesamicol piperazine derivatives synthesized in the Examples were added at various concentrations. The mixture was then incubated for three hours at 37°C.
as §2
Male Wistar rats were anesthetized with ether and were decapitated. The brains were immediately extracted. The cerebella were removed from the brains. 0.32 M sucrose (containing 4 mM HEPES (pH 7.4)) in an amount of five times the wet amount (weight) of this sample was added. The sample was homogenized by a potter-type homogenizer for 12 strokes while cooling with ice. 0.32 M sucrose in the same amount as the homogenate (total: 10 times the wet amount of the original sample) was added. The suspension thus obtained was centrifuged for 5 minutes at 1,000 x g. The precipitate was removed. The supernatant liquid was centrifuged at 9,200 x g for 15 minutes to separate the precipitate from the supernatant liquid. P2 fractions were suspended in a Tris-HCl buffer (pH 7.4) for binding experiments and stored at -80°C until the start of the binding experiment.

For assay [4], the target named is serotonin 5-HT2A receptors (Rattus norvegicus, UniProt P14842). As to the kind of experiment: Receptor binding test: inhibition of tritium-labeled ketanserin binding to brain homogenate. Further details: species or system Male Wistar rats.
Chain of serotonin 5-HT2A receptors (P14842 whole entry): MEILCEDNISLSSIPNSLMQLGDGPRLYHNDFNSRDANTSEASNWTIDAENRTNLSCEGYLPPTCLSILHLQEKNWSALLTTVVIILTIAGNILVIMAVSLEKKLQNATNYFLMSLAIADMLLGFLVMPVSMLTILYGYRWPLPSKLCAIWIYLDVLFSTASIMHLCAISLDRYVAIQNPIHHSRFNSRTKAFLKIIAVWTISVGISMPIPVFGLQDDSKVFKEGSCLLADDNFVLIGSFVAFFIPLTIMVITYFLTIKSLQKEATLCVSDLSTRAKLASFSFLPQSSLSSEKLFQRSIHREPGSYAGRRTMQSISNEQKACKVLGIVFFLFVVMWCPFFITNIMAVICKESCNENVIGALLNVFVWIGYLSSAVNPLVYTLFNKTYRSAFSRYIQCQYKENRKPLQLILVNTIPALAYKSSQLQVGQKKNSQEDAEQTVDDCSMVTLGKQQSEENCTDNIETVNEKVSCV
Assay [5] deals with T3, sigma receptors (Cavia porcellus, UniProt Q60492).
T3 construct: The brain was immediately extracted; The cerebellum was removed from the brain; from tissue; host or cells: guinea pig brain without cerebellum, membrane pellet
T3 sequence (Q60492 whole entry): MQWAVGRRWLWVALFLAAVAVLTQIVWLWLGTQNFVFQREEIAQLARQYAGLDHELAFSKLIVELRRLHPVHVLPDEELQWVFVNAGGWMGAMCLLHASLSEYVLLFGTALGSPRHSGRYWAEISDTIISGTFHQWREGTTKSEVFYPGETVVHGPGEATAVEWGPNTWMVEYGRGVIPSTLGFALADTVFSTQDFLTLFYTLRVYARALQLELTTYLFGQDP
The assay can be described thus: Receptor binding test: inhibition of tritium-labeled (+) pentazocine binding to brain homogenate. Also noted: species or system male guinea pig. Here is the method:
as §1
To measure affinity to sigma receptors, tritium-labeled (+) pentazocine was added to a brain homogenate prepared as follows. The vesamicol piperazine derivatives synthesized in the Examples were added at various concentrations, and the mixture was incubated for two hours at room temperature.
as §2
A male guinea pig was anesthetized with ether and was decapitated. The brain was immediately extracted. The cerebellum was removed from the brain. 10 mM Tris-sucrose buffer solution (0.32 M sucrose + 10 mM Tris-HCl (pH 7.4)) was added in the amount of 10 ml/g of the tissue. The mixture was homogenized by a potter-type homogenizer for 6-10 strokes. The homogenate was centrifuged at 1,000 x g for 10 minutes at 4°C and the supernatant liquid was collected. The resulting pellets were suspended in the Tris-sucrose buffer solution at the concentration of 2 ml/g, followed by centrifugation at 1,000 x g for 10 minutes at 4°C. The supernatant liquids obtained by the two centrifugation at 1,000 x g were combined and centrifuged at 31,000 x g for 15 minutes at 4°C. The resulting pellets were suspended in a 10 mM Tris-HCl buffer solution (pH 7.4) at a concentration of 3 ml/g of tissue and incubated for 30 minutes at 25°C. After incubation, the suspension was centrifuged at 31,000 x g for 15 minutes at 4°C. The pellets obtained were suspended in a 10 mM Tris-HCl buffer solution (pH 7.4) to make a final concentration of 1.53 ml/g of tissue. The suspension was homogenized by a potter-type homogenizer for 5 strokes. The homogenate was stored at -80°C until the start of the experiment.

Assay [6] concerns the target T1, vesamicol receptors. The assay can be described thus: Inhibition experiment: inhibition of binding of radioactive-iodine-labeled DRC140 to purified synaptic vesicle fractions. Particulars: for inhibitive action on purified synaptic vesicles: result in words. Further details: Synaptic vesicles were extracted and separated from the brain of a rat; from tissue; host or cells: rat brain without cerebellum: P2, crude synaptic vesicles, purified synaptic vesicles.

In assay [7] the target is adrenaline α1 receptors. As to the kind of experiment: Receptor binding test: inhibition of tritium-labeled prazosin binding to brain homogenate. Particulars: read-out: inhibitive concentration at 50% (IC50), Receptor Alpha-1; Table 9; high purity derivatives; unit inferred. Further details: species or system Male Wistar rats.
Where [8] appears, read: inhibitive concentration at 50% (IC50), Receptor Vesamicol.
Setting [9] is: read-out: inhibitive concentration at 50% (IC50), Receptor Sigma-1.

Like-named read-outs stand apart in the source and are kept apart here.

In the case of `Cc1ccc(C)c(N2CCN([C@@H]3Cc4c(I)cccc4C[C@H]3O)CC2)c1` (single isomer, unassigned) [DRE350, (-)-trans-5-iodo-2-hydroxy-3-[4-[2,5-dimethylphenyl]piperazinyl]tetralin], the IC50 was 0.83 nM in assay [1] (setting [8]); 240 nM in assay [2] (read-out: Inhibitive concentration at 50% (IC50), Serotonin receptor 5-HT1A); 0.58 nM in assay [3]; above 20000 nM in assay [4] (read-out: Inhibitive concentration at 50% (IC50), Serotonin receptor 5-HT2A); 1500 nM in assay [5] (read-out: Inhibitive concentration at 50% (IC50), Sigma α-1 receptor); 5550 nM in assay [5] (setting [9]).
As for `OC1CCCCC1N1CCC(c2ccccc2)CC1` (single isomer, unassigned; (-)) [(-)-Vesamicol, 2-(4-phenyl-piperidino)cyclohexanol, reference compound], the IC50 in assay [6] is 45.4 ± 3.59 nM; in assay [1] (IC50 (nM) Average ± S.D) it was 58.2 ± 17.3 nM; in assay [1] (setting [8]), 45.4 nM; in assay [2], above 5000 nM; in assay [4], above 5000 nM; in assay [5], 66.5 nM.
For `O[C@@H]1Cc2cccc(I)c2C[C@H]1N1CCC(c2ccccc2)CC1` [(-)-IBVM, 5-iodobenzovesamicol, reference compound], the IC50 was 0.32 nM in assay [1] (read-out: inhibitive concentration at 50% (IC50), Receptor Vesamicol); 119 nM in assay [2] (read-out: inhibitive concentration at 50% (IC50), Receptor 5-HT1A); above 5000 nM in assay [4] (read-out: inhibitive concentration at 50% (IC50), Receptor 5-HT2A); 174 nM in assay [5] (setting [9]); 2.61 nM in assay [7].
In the case of `Cc1ccccc1NC(=N)Nc1ccccc1C` [DTG, reference compound], in assay [6], the IC50 came out at 4160 ± 251 nM and the “inhibitive action on purified synaptic vesicles” value is on record as “almost the same degree of weak inhibitive action”. The “inhibitive action on P2 fractions” value in assay [1] is “weak inhibitive action”. Besides, the IC50 in assay [1] (IC50 (nM) Average ± S.D) was 3820 ± 930 nM.
Consider `O=C(c1ccc(F)cc1)C1CCN(CCn2c(=O)[nH]c3ccccc3c2=O)CC1` [Ketanserin, reference compound], for which the IC50 amounted to 1200 ± 43 nM in assay [6] (Table 8, purified synaptic vesicle fractions, inhibition of radioactive-iodine-labeled DRC140 binding, read-out: IC50 (nM) Average ± S.D) and 1110 ± 187 nM in assay [1] (Table 7, P2 fractions, inhibition of radioactive-iodine-labeled DRC140 binding, Binding site names the inhibitor's own site, read-out: IC50 (nM) Average ± S.D). The “inhibitive action on purified synaptic vesicles” value in assay [6] is “almost the same degree of weak inhibitive action”. In addition, the “inhibitive action on P2 fractions” value in assay [1] (result in words) was “weak inhibitive action”.
